From EP4206196A1, “PYRIMIDINE SUBSTITUTED DERIVATIVES AS TYK2 INHIBITORS” (Almirall S.A., priority 2021, dated 2023) come the findings set out here.

The test system of assay [1] is STAT1/3 through TYK2/JAK1. Kind of assay: IFNa induced STAT phosphorylation in HEK293 cells (SIE-bla reporter gene). To be noted: Homo sapiens, HEK293; HEK293T-sie-bla cells, IFNa at EC80, 4 hours; read-out: Inhibition of IFNa induced STAT phosphorylation HEK293 cells IC50. It is filed as cell-based. As for the experimental part: Stimulation of HEK293T-sie-bla cells with interferon alpha (INFa) activates the signaling pathway of STAT1/3 through TYK2/JAK1. In this assay, measurement of the activity of the reporter gene […]-lactamase expression was used as the readout.
CellSensorTM SIE-bla HEK293T cell line were purchased from Thermo Fisher Scientific (ref. #K1649B) and cultured as specified by the provider. A number of 30.000 cells per well (40 µl) were plated in a 384-well plate (Corning ref.# 3712) and cultured overnight at 37°C with 5% CO2 in a complete Optimem media (ThermoFisher ref. #11058-021) containing 0.5% (v/v) heat inactivated dialyzed FBS (Life Technologies ref. #26400044), 10 µM non-essential aminoacids NEAA (Sigma ref. #M7145), 100 µM Sodium Pyruvate (Gibco ref. #11360-039) and 100 U/mL Penicillin (Sigma ref. #P0781). Compounds were initially dissolved in 100% DMSO. Compound curves were then prepared using a 1/5 serial dilution (10 dilutions). The dilutions were directly diluted in complete Optimem media at 40-fold their final concentration in 20% DMSO. IFNa initial solution (R&D systems ref. #11100-1) was prepared at 10-fold its EC80 in complete Optimem media. Compounds and IFNa were added simultaneously to the wells with cells and incubated during 4 hours at 37°C (the final DMSO was 0.1%). The […]-lactamase substrate (LifeTechnologies ref.#K1138) was prepared at 6-fold its final concentration as specified by the provider. Then 10 µL of the mixture was added to the wells to stop the stimulation. Plate was left in the dark over-night. Then a FRET reading was performed on an appropriate plate reader.
All experiments were analysed using an ExcelFit template and the four-parameter log equation. […] TABLE 2: IC50 Inhibitions of IFNa induced STAT phosphorylation in HEK293 cells
On the technique in general: Reporter assays use an easily measured gene product as a stand-in for the process of interest.

In assay [2] the target is T1, TYK2 (JH2domain-pseudokinase) (Homo sapiens, UniProt P29597).
T1 construct: TYK2 (JH2domain-pseudokinase)-tagged T7 phage strains were prepared in an E. coli host derived from the BL21 strain; made in house; host or cells: E. coli BL21-derived host (T7 phage) or HEK-293 cells
Put plainly: TYK2 JH2 domain binding assay (KINOMEscan). As for the experimental part:
TYK2 (JH2domain-pseudokinase) KINOMEscan assay. For the assay, TYK2 (JH2domain-pseudokinase)-tagged T7 phage strains were prepared in an E. coli host derived from the BL21 strain.E. coli were grown to log-phase and infected with T7 phage and incubated with shaking at 32°C until lysis. The lysates were centrifuged and filtered to remove cell debris. The remaining TYK2 (JH2domain-pseudokinase) were produced in HEK-293 cells and subsequently tagged with DNA for qPCR detection. Streptavidin-coated magnetic beads were treated with biotinylated small molecule ligands for 30 minutes at room temperature to generate affinity resins for kinase assays. The liganded beads were blocked with excess biotin and washed with blocking buffer (SeaBlock (Pierce), 1% BSA, 0.05% Tween 20, 1 mM DTT) to remove unbound ligand and to reduce non-specific binding. Binding reactions were assembled by combining TYK2 (JH2domain-pseudokinase), liganded affinity beads, and test compounds in 1x binding buffer (20% SeaBlock, 0.17x PBS, 0.05% Tween 20, 6 mM DTT). Test compounds were prepared as 111X stocks in 100% DMSO. Kds were determined using an 11-point 3-fold compound dilution series with three DMSO control points. All compounds for Kd measurements are distributed by acoustic transfer (non-contact dispensing) in 100% DMSO. The compounds were then diluted directly into the assays such that the final concentration of DMSO was 0.9%. All reactions performed in polypropylene 384-well plate. Each was a final volume of 0.02 ml. The assay plates were incubated at room temperature with shaking for 1 hour and the affinity beads were washed with wash buffer (1x PBS, 0.05% Tween 20). The beads were then re-suspended in elution buffer (1x PBS, 0.05% Tween 20, 0.5 µM non-biotinylated affinity ligand) and incubated at room temperature with shaking for 30 minutes. The kinase concentration in the eluates was measured by qPCR. […]
An 11-point 3-fold serial dilution of each test compound was prepared in 100% DMSO at 100x final test concentration and subsequently diluted to 1x in the assay (final DMSO concentration = 1%). Most Kds were determined using a compound top concentration = 30,000 nM. If the initial Kd determined was < 0.5 nM (the lowest concentration tested), the measurement was repeated with a serial dilution starting at a lower top concentration.
Curves were fitted using a non-linear least square fit with the Levenberg-Marquardt algorithm. […] TABLE 1: Kd Affinities for Tyk2 JH2 Domain Binding Assay.

Some results are limits rather than exact numbers.

What is called IC50 is the concentration needed to halve the response being measured. For orientation: Kd means a measure of binding affinity in units of concentration.

T1 sequence (P29597 589-875 limits assumed): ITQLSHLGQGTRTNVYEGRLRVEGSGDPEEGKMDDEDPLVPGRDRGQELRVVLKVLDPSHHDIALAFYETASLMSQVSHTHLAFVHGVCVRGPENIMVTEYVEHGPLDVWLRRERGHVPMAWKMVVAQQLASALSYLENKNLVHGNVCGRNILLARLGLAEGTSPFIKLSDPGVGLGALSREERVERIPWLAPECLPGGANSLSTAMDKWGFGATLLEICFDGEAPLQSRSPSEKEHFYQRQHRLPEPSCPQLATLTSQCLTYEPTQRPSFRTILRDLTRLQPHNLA

`CN=S(C)(=O)c1ccccc1Nc1cc(Nc2cc(C)nc(C)n2)ncn1` (stereo not shown) [Example 112, N6-(2,6-dimethylpyrimidin-4-yl)-N4-[2-(N,S-dimethylsulfonimidoyl)phenyl]pyrimidine-4,6-diamine]: the IC50 in assay [1] lay in the range of 10 to 100 nM. In assay [2], the Kd is below 0.2 nM.
For `COc1c(F)cccc1Nc1cc(Nc2cc(C)nc(C)n2)ncn1` [Example 7, N6-(2,6-dimethylpyrimidin-4-yl)-N4-(3-fluoro-2-methoxy-phenyl) pyrimidine-4,6-diamine] the same measures were above 1000 nM and above 10 nM.
In the same order, the values of `Cc1cc(Nc2cc(Nc3ccc(-c4cncn4C)cc3N(C)S(C)(=O)=O)ncn2)nc(C)n1` [Example 24, N-[2-[[6-[(2,6-dimethylpyrimidin-4-yl)amino]pyrimidin-4-yl]amino]-5-(3-methylimidazol-4-yl)phenyl]-N-methyl-methanesulfonamide] are 10 to 100 nM and below 0.2 nM.
In the same order, the values of `Cc1cc(Nc2cc(Nc3nc(C)c(-c4cnn(C)c4)cc3N(C)S(C)(=O)=O)ncn2)ncn1` [Example 162, N-methyl-N-[6-methyl-5-(1-methylpyrazol-4-yl)-2-[[6-[(6-methylpyrimidin-4-yl)amino]pyrimidin-4-yl]amino]-3-pyridyl]methanesulfonamide] are below 10 nM and below 0.2 nM.
As to `Cc1cc(Nc2cc(Nc3ccc(C4CCOC4)cc3N(C)S(C)(=O)=O)ncn2)nc(C)n1` (stereo not shown) [Example 111, N-[2-[[6-[(2,6-dimethylpyrimidin-4-yl)amino]pyrimidin-4-yl]amino]-5-tetrahydrofuran-3-yl-phenyl]-N-methyl-methanesulfonamide], the IC50 in assay [1] was in the range of 10 to 100 nM. For the same compound, in assay [2], the Kd is below 0.2 nM.
In the same order, the values of `COc1cccc(Nc2cc(Nc3cc(C)nc(C)n3)ncn2)c1OC` [Example 20, N4-(2,3-dimethoxyphenyl)-N6-(2,6-dimethylpyrimidin-4-yl)pyrimidine-4,6-diamine] are 100 to 1000 nM and 0.2 to 1 nM.
For `Cc1cc(Nc2cc(Nc3ccc(C4CCCCO4)cc3N(C)S(C)(=O)=O)ncn2)nc(C)n1` (stereo not shown) [Example 107, N-[2-[[6-[(2,6-dimethylpyrimidin-4-yl)amino]pyrimidin-4-yl]amino]-5-tetrahydropyran-2-yl-phenyl]-N-methyl-methanesulfonamide] the same measures were below 10 nM and below 0.2 nM.
For `COc1cc(-c2ncn(C)n2)ccc1Nc1cc(Nc2cc(C)nc(C)n2)ncn1` [Example 85, N6-(2,6-dimethylpyrimidin-4-yl)-N4-[2-methoxy-4-(1-methyl-1,2,4-triazol-3-yl)phenyl]pyrimidine-4,6-diamine] the same measures were 10 to 100 nM and 1 to 10 nM.
Regarding `COc1c(C#N)cccc1Nc1cc(Nc2cc(C)nc(C)n2)ncn1` [Example 16, 3-[[6-[(2,6-dimethylpyrimidin-4-yl)amino]pyrimidin-4-yl]amino]-2-methoxy-benzonitrile], in assay [1], the IC50 was above 1000 nM. This compound also had a Kd in assay [2] of 1 to 10 nM.
In the same order, the values of `Cc1cc(Nc2cc(Nc3ncc(-c4ccn(C)n4)cc3N(C)S(C)(=O)=O)ncn2)nc(C)n1` [Example 131, N-[2-[[6-[(2,6-dimethylpyrimidin-4-yl)amino]pyrimidin-4-yl]amino]-5-(1-methylpyrazol-3-yl)-3-pyridyl]-N-methyl-methanesulfonamide] are 10 to 100 nM and below 0.2 nM.
In the same order, the values of `Cc1cc(Nc2cc(Nc3ncc(-c4cc(C)nn4C)cc3N(C)S(C)(=O)=O)ncn2)nc(C)n1` [Example 129, N-[5-(2,5-dimethylpyrazol-3-yl)-2-[[6-[(2,6-dimethylpyrimidin-4-yl)amino]pyrimidin-4-yl]amino]-3-pyridyl]-N-methyl-methanesulfonamide] are 10 to 100 nM and below 0.2 nM.
`COc1cc(C(F)(F)F)ccc1Nc1cc(Nc2cc(C)nc(C)n2)ncn1` [Example 22, N6-(2,6-dimethylpyrimidin-4-yl)-N4-[2-methoxy-4-(trifluoromethyl)phenyl]pyrimidine-4,6-diamine]: the half-inhibitory concentration (IC50) in assay [1] was in the range of 100 to 1000 nM. Moreover, in assay [2], the Kd was above 10 nM.
In the same order, the values of `COc1c(Nc2cc(Nc3cc(C)nc(C)n3)ncn2)ccc(F)c1-c1ncn(C)n1` [Example 64, N4-(2,6-dimethylpyrimidin-4-yl)-N6-[4-fluoro-2-methoxy-3-(1-methyl-1,2,4-triazol-3-yl)phenyl]pyrimidine-4,6-diamine] are 100 to 1000 nM and 0.2 to 1 nM.
For `COCCn1cnc(-c2ccnc(Nc3cc(Nc4cc(C)nc(C)n4)ncn3)c2OC)n1` [Example 169, N6-(2,6-dimethylpyrimidin-4-yl)-N4-[3-methoxy-4-[1-(2-methoxyethyl)-1,2,4-triazol-3-yl]-2-pyridyl]pyrimidine-4,6-diamine] the same measures were 10 to 100 nM and below 0.2 nM.
Regarding `Cc1cc(Nc2cc(Nc3ccc(C4=CCCCO4)cc3N(C)S(C)(=O)=O)ncn2)nc(C)n1` [Example 92, N-[5-(3,4-dihydro-2H-pyran-6-yl)-2-[[6-[(2,6-dimethylpyrimidin-4-yl)amino]pyrimidin-4-yl]amino]phenyl]-N-methylmethanesulfonamide], in assay [1], the IC50 is below 10 nM. This compound also showed a Kd in assay [2] below 0.2 nM.
In the same order, the values of `Cc1cc(Nc2cc(Nc3ccccc3CS(C)(=O)=O)ncn2)nc(C)n1` [Example 66, N4-(2,6-dimethylpyrimidin-4-yl)-N6-[2-(methylsulfonylmethyl)phenyl]pyrimidine-4,6-diamine] are 100 to 1000 nM and 0.2 to 1 nM.
For `Cc1cc(Nc2cc(Nc3ccccc3OC(F)(F)F)ncn2)nc(C)n1` [Example 10, N6-(2,6-dimethylpyrimidin-4-yl)-N4-[2-(trifluoromethoxy)phenyl] pyrimidine-4,6-diamine] the same measures were above 1000 nM and above 10 nM.
As for `COc1c(Br)cccc1Nc1cc(Nc2cc(C)nc(C)n2)ncn1` [Example 50, N6-(3-bromo-2-methoxy-phenyl)-N4-(2,6-dimethylpyrimidin-4-yl)pyrimidine-4,6-diamine], the concentration for half-maximal inhibition (IC50) in assay [1] lay in the range of 100 to 1000 nM. The compound also showed a Kd in assay [2] of 1 to 10 nM.
Consider `[2H]C([2H])([2H])N(c1ccccc1Nc1cc(Nc2cc(C)nc(C)n2)ncn1)S(C)(=O)=O` [Example 34, N-[2-[[6-[(2,6-dimethylpyrimidin-4-yl)amino]pyrimidin-4-yl]amino]phenyl]-N-(trideuteriomethyl)methanesulfonamide], for which the IC50 in assay [1] is below 10 nM. This compound gave a Kd in assay [2] below 0.2 nM.
In the same order, the values of `CN=S(C)(=O)c1cc(-c2cnn(C)c2C)ccc1Nc1cc(Nc2cc(C)nc(C)n2)ncn1` (stereo not shown) [Example 113, N4-[4-(1,5-dimethylpyrazol-4-yl)-2-(N,S-dimethylsulfonimidoyl)phenyl]-N6-(2,6-dimethylpyrimidin-4-yl)pyrimidine-4,6-diamine] are below 10 nM and below 0.2 nM.
